Laboratory results: publication PMC8213057, “Targeting ALK2: An Open Science Approach to Developing Therapeutics for the Treatment of Diffuse Intrinsic Pontine Glioma” (Journal of Medicinal Chemistry, 2020)

What was measured:
FER = FER (Homo sapiens, UniProt P16591); assay: biochemical; details: read-out: % enzyme activity, 1 μM; Run 1, Run 2
CK1g1 = CK1g1 (Homo sapiens, UniProt Q9HCP0); details: 1 μM; Run 1, Run 2
DYRK1B = DYRK1B (Homo sapiens, UniProt Q9Y463); details: 1 μM; Run 1, Run 2
HIPK1 = HIPK1 (Homo sapiens, UniProt Q86Z02); details: 1 μM; Run 1, Run 2
CK2a = CK2a (Homo sapiens, UniProt P68400); details: 1 μM; Run 1, Run 2
CDK14/cyclin Y (PFTK1) = CDK14/cyclin Y (PFTK1) (Homo sapiens, UniProt O94921); assay: biochemical; details: read-out: % enzyme activity, 1 μM; Run 1, Run 2
TIE2/TEK = TIE2/TEK (Homo sapiens, UniProt Q02763); details: 1 μM; Run 1, Run 2
PLK1 = PLK1 (Homo sapiens, UniProt P53350); details: 1 μM; Run 1, Run 2
PKCnu/PRKD3 = molecular target: T1, PKCnu/PRKD3 (Homo sapiens, UniProt O94806); details: 1 μM; Run 1, Run 2
T1 sequence (O94806 1-890): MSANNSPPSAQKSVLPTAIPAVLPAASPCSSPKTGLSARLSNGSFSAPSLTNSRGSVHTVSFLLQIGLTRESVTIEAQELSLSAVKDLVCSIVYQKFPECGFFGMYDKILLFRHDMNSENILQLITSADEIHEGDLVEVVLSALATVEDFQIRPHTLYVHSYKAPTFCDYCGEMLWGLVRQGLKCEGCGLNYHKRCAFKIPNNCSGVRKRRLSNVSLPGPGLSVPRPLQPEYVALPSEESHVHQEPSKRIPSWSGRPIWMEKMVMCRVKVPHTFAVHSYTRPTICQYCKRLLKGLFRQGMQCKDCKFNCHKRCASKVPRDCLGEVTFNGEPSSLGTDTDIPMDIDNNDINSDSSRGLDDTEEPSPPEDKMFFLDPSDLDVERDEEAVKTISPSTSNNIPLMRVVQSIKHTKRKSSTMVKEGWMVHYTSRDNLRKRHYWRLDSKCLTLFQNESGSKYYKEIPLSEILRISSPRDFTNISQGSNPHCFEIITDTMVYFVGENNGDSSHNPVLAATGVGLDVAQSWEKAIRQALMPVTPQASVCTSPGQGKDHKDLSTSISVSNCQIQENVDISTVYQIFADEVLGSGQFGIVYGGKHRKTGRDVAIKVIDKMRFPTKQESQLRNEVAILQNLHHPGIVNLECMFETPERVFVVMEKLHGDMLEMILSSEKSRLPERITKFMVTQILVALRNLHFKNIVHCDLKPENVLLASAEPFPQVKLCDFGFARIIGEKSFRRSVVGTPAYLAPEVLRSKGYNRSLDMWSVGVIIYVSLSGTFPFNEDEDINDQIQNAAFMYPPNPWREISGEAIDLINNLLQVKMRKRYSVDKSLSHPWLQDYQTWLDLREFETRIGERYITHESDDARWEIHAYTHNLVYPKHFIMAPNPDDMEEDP

MST1/STK4 = molecular target: T2, MST1/STK4 (Homo sapiens, UniProt Q13043); assay: biochemical; details: read-out: % enzyme activity, 1 μM; Run 1, Run 2
T2 sequence (Q13043 1-487): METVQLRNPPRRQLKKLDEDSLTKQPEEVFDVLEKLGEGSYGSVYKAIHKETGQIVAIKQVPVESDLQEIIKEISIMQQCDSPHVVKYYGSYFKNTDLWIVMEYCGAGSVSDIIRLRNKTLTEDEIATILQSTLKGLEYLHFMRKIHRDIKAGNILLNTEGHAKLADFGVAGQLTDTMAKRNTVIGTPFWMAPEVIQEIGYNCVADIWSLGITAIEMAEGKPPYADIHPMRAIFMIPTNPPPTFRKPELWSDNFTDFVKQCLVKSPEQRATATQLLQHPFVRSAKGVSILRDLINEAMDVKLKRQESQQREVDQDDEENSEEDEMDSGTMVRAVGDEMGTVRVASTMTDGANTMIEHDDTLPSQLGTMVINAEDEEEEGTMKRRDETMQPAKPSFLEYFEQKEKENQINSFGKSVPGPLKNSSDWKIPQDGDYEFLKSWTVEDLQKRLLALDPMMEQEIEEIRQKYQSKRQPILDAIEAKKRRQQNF

GRK2 = molecular target: T3, GRK2 (Homo sapiens, UniProt P25098); details: 1 μM; Run 1, Run 2
T3 sequence (P25098 1-689): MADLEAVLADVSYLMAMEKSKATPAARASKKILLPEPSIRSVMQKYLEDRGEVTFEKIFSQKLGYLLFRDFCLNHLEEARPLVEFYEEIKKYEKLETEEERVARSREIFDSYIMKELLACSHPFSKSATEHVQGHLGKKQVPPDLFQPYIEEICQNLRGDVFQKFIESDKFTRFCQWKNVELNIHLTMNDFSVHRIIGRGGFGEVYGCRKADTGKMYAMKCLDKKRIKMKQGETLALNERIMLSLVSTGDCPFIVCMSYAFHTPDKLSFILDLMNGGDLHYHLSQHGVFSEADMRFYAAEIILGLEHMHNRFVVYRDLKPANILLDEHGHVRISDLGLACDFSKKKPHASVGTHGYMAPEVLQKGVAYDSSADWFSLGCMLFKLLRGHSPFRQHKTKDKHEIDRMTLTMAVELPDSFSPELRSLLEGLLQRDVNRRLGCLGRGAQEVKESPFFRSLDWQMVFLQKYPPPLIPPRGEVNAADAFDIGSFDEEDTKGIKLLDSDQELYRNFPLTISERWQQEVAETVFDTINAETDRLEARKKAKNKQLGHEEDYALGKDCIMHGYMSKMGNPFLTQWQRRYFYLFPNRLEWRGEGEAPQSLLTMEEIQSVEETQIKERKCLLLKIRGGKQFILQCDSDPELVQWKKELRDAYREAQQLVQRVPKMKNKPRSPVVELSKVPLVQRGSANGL

LYN = LYN (Homo sapiens, UniProt P07948); assay: biochemical; details: read-out: % enzyme activity, 1 μM; Run 1, Run 2
BLK = BLK (Homo sapiens, UniProt P51451); assay: biochemical; details: read-out: % enzyme activity, 1 μM; Run 1, Run 2
Sequence of BLK (P51451 whole entry): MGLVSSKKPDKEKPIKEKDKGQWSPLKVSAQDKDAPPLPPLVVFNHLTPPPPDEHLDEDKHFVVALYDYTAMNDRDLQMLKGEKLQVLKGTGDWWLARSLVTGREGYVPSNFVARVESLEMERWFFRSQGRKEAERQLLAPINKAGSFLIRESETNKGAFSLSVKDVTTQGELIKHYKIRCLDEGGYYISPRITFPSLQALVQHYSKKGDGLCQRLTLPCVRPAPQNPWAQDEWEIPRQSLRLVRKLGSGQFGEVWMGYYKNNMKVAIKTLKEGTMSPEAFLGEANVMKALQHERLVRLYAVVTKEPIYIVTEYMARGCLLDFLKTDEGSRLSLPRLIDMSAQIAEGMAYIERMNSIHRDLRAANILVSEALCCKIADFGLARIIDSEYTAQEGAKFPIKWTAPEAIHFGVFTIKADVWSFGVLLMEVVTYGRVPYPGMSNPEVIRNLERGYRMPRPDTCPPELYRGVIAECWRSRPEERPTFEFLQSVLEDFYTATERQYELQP

Sequence of CDK14/cyclin Y (PFTK1) (O94921 whole entry): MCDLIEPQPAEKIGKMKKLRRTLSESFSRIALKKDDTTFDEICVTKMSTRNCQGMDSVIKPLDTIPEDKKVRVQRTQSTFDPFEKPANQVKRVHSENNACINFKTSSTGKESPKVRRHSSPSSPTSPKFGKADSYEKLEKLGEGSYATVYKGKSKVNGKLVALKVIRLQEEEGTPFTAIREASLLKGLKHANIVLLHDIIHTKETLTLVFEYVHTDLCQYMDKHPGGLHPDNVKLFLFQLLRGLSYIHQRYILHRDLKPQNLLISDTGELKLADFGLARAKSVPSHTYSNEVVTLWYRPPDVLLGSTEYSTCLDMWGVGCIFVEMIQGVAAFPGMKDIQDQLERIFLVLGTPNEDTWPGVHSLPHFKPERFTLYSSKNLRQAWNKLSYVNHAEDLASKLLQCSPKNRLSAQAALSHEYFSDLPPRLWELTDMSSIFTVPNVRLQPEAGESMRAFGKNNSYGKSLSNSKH
Sequence of CDK14/cyclin Y (PFTK1) (Q8ND76 whole entry partner): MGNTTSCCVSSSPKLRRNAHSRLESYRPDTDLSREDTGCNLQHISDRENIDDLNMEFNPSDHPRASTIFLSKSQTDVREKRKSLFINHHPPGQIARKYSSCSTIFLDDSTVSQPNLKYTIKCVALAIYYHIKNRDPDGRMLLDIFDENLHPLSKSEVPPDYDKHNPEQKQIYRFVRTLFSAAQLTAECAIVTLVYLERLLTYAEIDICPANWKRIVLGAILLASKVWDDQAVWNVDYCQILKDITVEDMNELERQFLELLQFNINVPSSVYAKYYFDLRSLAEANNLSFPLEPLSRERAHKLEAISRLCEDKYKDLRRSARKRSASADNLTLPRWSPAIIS
Sequence of DYRK1B (Q9Y463 whole entry): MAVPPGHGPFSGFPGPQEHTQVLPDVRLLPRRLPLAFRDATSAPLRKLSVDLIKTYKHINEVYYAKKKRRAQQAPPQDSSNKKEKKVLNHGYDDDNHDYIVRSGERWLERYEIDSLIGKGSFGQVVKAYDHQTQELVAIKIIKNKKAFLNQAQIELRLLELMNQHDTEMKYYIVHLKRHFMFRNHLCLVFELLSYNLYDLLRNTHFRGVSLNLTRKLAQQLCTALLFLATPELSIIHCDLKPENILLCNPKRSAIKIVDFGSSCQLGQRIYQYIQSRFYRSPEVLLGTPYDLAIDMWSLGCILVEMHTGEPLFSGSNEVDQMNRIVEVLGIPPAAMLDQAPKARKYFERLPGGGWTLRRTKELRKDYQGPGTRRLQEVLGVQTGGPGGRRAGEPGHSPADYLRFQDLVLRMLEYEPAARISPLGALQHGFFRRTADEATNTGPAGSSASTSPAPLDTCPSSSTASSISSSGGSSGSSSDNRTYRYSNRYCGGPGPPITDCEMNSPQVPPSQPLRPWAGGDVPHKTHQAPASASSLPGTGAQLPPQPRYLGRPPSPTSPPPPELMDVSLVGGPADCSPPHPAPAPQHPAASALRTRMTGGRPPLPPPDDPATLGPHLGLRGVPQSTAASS
Sequence of TIE2/TEK (Q02763 23-1124): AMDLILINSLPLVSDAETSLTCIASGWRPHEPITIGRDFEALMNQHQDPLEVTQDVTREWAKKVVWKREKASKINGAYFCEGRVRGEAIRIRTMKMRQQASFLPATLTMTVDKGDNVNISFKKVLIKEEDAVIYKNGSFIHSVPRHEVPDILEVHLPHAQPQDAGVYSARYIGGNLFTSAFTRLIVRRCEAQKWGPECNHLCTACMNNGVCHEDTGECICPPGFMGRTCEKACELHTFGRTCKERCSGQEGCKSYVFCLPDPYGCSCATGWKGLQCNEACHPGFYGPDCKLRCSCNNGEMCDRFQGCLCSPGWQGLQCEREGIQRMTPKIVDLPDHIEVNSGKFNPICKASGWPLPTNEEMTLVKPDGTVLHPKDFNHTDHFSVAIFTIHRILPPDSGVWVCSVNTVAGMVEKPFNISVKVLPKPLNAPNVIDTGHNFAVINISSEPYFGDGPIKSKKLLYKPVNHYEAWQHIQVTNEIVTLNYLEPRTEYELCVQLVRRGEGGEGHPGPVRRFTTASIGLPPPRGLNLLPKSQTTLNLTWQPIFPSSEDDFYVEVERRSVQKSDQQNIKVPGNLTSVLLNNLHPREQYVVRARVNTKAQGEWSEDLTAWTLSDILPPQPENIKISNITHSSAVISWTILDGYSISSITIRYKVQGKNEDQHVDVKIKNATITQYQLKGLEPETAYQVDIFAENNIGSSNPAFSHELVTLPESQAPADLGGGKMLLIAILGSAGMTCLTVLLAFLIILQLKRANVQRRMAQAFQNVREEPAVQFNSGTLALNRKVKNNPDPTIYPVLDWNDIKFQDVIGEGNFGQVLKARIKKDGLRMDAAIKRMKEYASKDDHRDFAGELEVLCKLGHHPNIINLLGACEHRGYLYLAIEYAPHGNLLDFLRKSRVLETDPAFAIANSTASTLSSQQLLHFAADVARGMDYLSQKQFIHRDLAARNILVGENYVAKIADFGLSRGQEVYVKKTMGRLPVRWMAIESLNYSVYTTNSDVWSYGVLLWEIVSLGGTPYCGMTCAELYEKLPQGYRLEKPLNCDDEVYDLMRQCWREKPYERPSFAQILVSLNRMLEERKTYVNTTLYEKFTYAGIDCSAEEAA
Sequence of CK1g1 (Q9HCP0 whole entry): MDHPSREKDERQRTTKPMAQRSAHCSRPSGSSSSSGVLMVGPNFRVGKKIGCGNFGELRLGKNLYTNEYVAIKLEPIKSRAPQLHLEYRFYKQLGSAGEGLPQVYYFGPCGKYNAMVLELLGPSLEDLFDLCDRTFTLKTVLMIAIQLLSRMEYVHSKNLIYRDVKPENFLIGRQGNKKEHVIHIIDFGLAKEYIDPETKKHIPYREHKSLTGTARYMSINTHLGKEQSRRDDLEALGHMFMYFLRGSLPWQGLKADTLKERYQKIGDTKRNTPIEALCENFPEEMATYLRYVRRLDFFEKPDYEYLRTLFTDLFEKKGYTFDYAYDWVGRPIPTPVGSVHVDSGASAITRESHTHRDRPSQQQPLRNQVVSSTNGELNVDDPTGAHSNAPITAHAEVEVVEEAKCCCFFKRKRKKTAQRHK
Sequence of FER (P16591 whole entry): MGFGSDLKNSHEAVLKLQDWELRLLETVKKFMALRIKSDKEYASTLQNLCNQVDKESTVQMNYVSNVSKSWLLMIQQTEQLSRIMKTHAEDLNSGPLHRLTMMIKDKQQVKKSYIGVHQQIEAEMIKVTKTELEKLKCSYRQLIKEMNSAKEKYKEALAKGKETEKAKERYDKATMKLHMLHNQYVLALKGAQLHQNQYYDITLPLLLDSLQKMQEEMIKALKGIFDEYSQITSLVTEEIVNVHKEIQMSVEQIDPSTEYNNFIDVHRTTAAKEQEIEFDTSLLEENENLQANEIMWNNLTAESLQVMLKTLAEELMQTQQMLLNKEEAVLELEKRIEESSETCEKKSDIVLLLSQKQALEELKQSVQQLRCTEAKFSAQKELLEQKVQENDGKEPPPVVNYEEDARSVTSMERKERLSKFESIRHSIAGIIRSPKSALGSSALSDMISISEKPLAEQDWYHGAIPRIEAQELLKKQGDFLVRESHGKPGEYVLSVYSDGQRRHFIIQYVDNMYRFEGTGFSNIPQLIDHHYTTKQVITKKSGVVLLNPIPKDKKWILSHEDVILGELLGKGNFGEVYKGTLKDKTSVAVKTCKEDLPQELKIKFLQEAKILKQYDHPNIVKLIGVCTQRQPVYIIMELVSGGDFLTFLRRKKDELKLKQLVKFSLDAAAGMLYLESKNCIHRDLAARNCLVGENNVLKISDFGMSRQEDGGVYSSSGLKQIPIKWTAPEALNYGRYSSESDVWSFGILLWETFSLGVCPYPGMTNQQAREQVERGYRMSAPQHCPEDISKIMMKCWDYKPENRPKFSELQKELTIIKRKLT
Sequence of CK2a (P68400 whole entry): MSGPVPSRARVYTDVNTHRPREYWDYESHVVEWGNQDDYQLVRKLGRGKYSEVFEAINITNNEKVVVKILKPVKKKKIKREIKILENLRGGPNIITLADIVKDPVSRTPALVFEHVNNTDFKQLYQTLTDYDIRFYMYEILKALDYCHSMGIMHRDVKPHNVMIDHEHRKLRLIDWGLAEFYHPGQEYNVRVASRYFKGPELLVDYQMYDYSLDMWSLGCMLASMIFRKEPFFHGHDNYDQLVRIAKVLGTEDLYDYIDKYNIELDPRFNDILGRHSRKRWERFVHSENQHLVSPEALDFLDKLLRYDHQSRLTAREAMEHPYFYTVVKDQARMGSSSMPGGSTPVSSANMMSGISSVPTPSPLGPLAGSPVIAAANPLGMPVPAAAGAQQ

**Q.** With `COc1cc(-c2cncc(-c3ccc(N4CCN(C)CC4)cc3)c2C)cc(F)c1C(N)=O` [Compound 26a, 2-Fluoro-6-methoxy-4-(4-methyl-5-(4-(4-methylpiperazin-1-yl)phenyl)pyridin-3-yl)benzamide] as the molecule, how does the remaining activity at 1 µM (FER) read?
**A.** The remaining activity at 1 µM was 89.2%.

**Q.** And the “% enzyme activity” value (CK1g1)?
**A.** Its value is 55.41%.

**Q.** And the “% enzyme activity” value (DYRK1B)?
**A.** The value was 39.80%.

**Q.** What about the “% enzyme activity” value (HIPK1) of the same molecule?
**A.** Its value is 102.36%.

**Q.** And the “% enzyme activity” value (CK2a)?
**A.** Its value is 91.32%.

**Q.** What about the remaining activity at 1 µM (CDK14/cyclin Y (PFTK1)) of the same molecule?
**A.** Its remaining activity at 1 µM is 98.4%.

**Q.** What about the “% enzyme activity” value (TIE2/TEK) of the same molecule?
**A.** Its value is 92.85%.

**Q.** What about the “% enzyme activity” value (PLK1) of the same molecule?
**A.** The value was 91.24%.

**Q.** What about the “% enzyme activity” value (PKCnu/PRKD3) of the same molecule?
**A.** Its value is 83.26%.

**Q.** What about the remaining activity at 1 µM (MST1/STK4) of the same molecule?
**A.** The remaining activity at 1 µM was 101%.

**Q.** And the “% enzyme activity” value (GRK2)?
**A.** The value was 103.58%.

**Q.** What about the remaining activity at 1 µM (LYN) of the same molecule?
**A.** The remaining activity at 1 µM was 79.9%.

**Q.** What about the remaining activity at 1 µM (BLK) of the same molecule?
**A.** Its remaining activity at 1 µM is 97.2%.

**Q.** Which remaining activity at 1 µM (FER) does the source give for `COc1cc(-c2cncc(-c3ccc(N4C[C@@H](C)N(C)[C@@H](C)C4)cc3)c2C)cc(F)c1C(N)=O` [Compound 26c, 2-Fluoro-6-methoxy-4-(4-methyl-5-(4-((3R,5S)-3,4,5-trimethylpiperazin-1-yl)phenyl)pyridin-3-yl)benzamide] here?
**A.** The remaining activity at 1 µM was 86%.

**Q.** What about the “% enzyme activity” value (CK1g1) of the same molecule?
**A.** The value was 69.61%.

**Q.** What about the “% enzyme activity” value (DYRK1B) of the same molecule?
**A.** The value was 58.52%.

**Q.** What about the “% enzyme activity” value (HIPK1) of the same molecule?
**A.** Its value is 96.64%.

**Q.** What about the “% enzyme activity” value (CK2a) of the same molecule?
**A.** Its value is 86.32%.

**Q.** What about the remaining activity at 1 µM (CDK14/cyclin Y (PFTK1)) of the same molecule?
**A.** The remaining activity at 1 µM was 99.8%.

**Q.** And the “% enzyme activity” value (TIE2/TEK)?
**A.** The value was 92.15%.

**Q.** And the “% enzyme activity” value (PLK1)?
**A.** The value was 92.70%.

**Q.** And the “% enzyme activity” value (PKCnu/PRKD3)?
**A.** Its value is 89.59%.

**Q.** And the remaining activity at 1 µM (MST1/STK4)?
**A.** Its remaining activity at 1 µM is 103%.

**Q.** What about the “% enzyme activity” value (GRK2) of the same molecule?
**A.** Its value is 99.17%.

**Q.** What about the remaining activity at 1 µM (LYN) of the same molecule?
**A.** Its remaining activity at 1 µM is 91%.

**Q.** What about the remaining activity at 1 µM (BLK) of the same molecule?
**A.** The remaining activity at 1 µM was 104%.
